Data on one compound can be found in patent US11439609B2, “Nitric oxide releasing PLGA microspheres for biomedical applications” (THE REGENTS OF THE UNIVERSITY OF MICHIGAN, priority 2015, dated 2022).

Some results are limits rather than exact numbers.

The series can be described thus: Morphology and size distribution by SEM. In kind it is physicochemical. To be noted: cryomilled at −196° C. On the procedure:
For morphology and size distribution analysis, microspheres were coated with 40 nm of gold using a sputter coater (Desk II, Denton Vacuum Inc., Hill, N.J., USA) for 120 seconds. Secondary electron micrographs were taken by a Hitachi S-3200N Variable Pressure SEM (Hitachi High-Technologies Corp., Tokyo, Japan). The applied accelerating voltage was 15 kV. For size distribution measurements, the diameter of at least 500 particles was measured and analyzed with ImageJ software (see, e.g., C. A. Schneider, W. S. Rasband, K. W. Eliceiri, NIH Image to ImageJ: 25 years of image analysis, Nature Methods. 9 (2012) 671-675). For cross-sectional images, the microspheres were cut using a razor-blade on a glass slide prior to coating with gold for the SEM analysis.

In the case of `CC(=O)N[C@@H](C(=O)O)C(C)(C)SN=O` [SNAP, S-nitroso-N-acetyl-D-penicillamine], the “particle dimensions after micronization” value was below 25 μm.
